Patent US7982017B2, “Antibodies recognizing a carbohydrate containing epitope on CD-43 and CEA expressed on cancer cells and methods using same” (BioAlliance C.V., priority 2007, dated 2011)

How the values were obtained:
Colo205 cells = assay: Apoptosis of Colo205 cells by 5F1 antibodies in combination with Oxaliplatin (24 h, Annexin V / PI); format: cell-based; conditions: background subtracted
Method: 1.4×10^5 of Colo205 cells were seeded into the wells of 96-well plates. Aliquots of Oxaliplatin reconstituted in 5% glucose solution were prepared freshly and added to each well at the final concentration of 1 and 10 ug/ml, along or in combination with aliquots of purified c5F1-v17, c5F1-v24, c5F1-v25 and control antibodies at the final concentrations of 10 and 30 ug/ml. The treated cells were kept at 37° incubator for 24 h before FACS analysis for apoptosis. For cellular apoptosis assay, Annexin V staining was measured using Annexin-V-FITC Apoptosis Detection Kit (Strong Biotech, Cat. No. AV 250) following the manufacturer's instruction. In brief, the treated cells were harvested and resuspended in Annexin V binding buffer containing Annexin V-FITC at room temperature. After 15 min incubation in the dark, the cells were washed twice with 200 ul of Annexin V binding buffer. Before FACS analysis, 0.5 ul of propidium iodide (PI) was added. All flow cytometric analyses were performed on a BD-LSR flow cytometer (Becton Dickinson) using the Cell Quest software. The Annexin V positive and/or PI positive cells are considered apoptotic cells.

COLO 205 cells [1] = assay: Binding assay: flow cytometric binding of 5F1 antibodies to COLO 205 cells; conditions: for binding to Colo 205 (words): FIG. 3, 0.125 to 4 ug/ml
Method: Purified m5F1, c5F1-v0, c5F1-v15 and c5F1-v16 antibodies at the concentration ranging from 0.125 to 4 ug/ml were added to 1.5×10^5 COLO 205 cells and incubated for 30 min at 4° C., washed for twice with PBS containing 2% FBS and 0.05% NaN3, followed by incubation with 1 μg/ml of corresponding secondary antibodies (R-PE-conjugated goat F(ab′)2 anti-mouse IgG(H+L), Southern Biotech, Cat. No. 1032-09; or R-PE-conjugated goat anti-human IgG, Southern Biotech, Cat. No. 2040-09) at 4° C. for 30 min. At the end of staining, samples were washed twice with PBS containing 2% FBS and 0.05% NaN3 and analyzed by flow cytometer. All flow cytometric analyses were performed on a BD-LSR flow cytometer (Becton Dickinson) using the Cell Quest software.
Purified m5F1, c5F1-v0, c5F1-yl7, c5F1-v24 and c5F1-v25 antibodies at 1 ug/ml were added to 2×10^5 Colo 205 cells and incubated for 30 min at 4° C., washed for twice with PBS containing 1% FBS, followed by incubation with 1 ug/ml of corresponding secondary antibodies (R-PE-conjugated goat F(ab′)2 anti-mouse IgG(H+L), Southern Biotech, Cat. No. 1032-09; or R-PE-conjugated goat anti-human IgG, Southern Biotech, Cat. No. 2040-09) at 4° C. for 30 min. At the end of staining, samples were washed twice with PBS containing 1% FBS and 0.05% NaN3 and analyzed by flow cytometer. All flow cytometric analyses were performed on a BD-LSR flow cytometer (Becton Dickinson) using the Cell Quest software.

COLO 205 cells [2] = assay: Six-hour apoptosis assay (Annexin V / PI, FACS) in COLO 205; format: cell-based; conditions: 6 h
Method: 1.5×10^5 of COLO 205 cells were seeded into the wells of 96-well plates. Aliquots of purified m5F1, c5F1-v0, c5F1-v15, c5F1-v16 and control antibodies at the concentration ranging from 2 to 32 ug/ml were prepared freshly in culture medium and added to each well. The sample treated with m9E10 and h16C11A were used as isotype control. The treated cells were kept at 37° incubator for 6 h before FACS analysis for apoptosis. For cellular apoptosis assay, Annexin V staining was measured using Annexin-V-FITC Apoptosis Detection Kit (Strong Biotech, Cat. No. AVK250) following the manufacturer's instruction. In brief, the treated cells were harvested and resuspended in Annexin V binding buffer containing Annexin V-FITC at room temperature. After 15 min incubation in the dark, the cells were washed twice with 200 μl of Annexin V binding buffer. Before FACS analysis, 0.25 μg/ml of propidium iodide (PI) was added. All flow cytometric analyses were performed on a BD-LSR flow cytometer (Becton Dickinson) using the Cell Quest software. The Annexin VI positive and/or PI positive cells are considered apoptotic cells.
1.5×10^5 of Colo205 cells were seeded into the wells of 96-well plates. Aliquots of purified m5F1, c5F1, c5F1-v17, c5F1-v24, c5F1-v25 and control antibodies at the concentration ranging from 8 to 32 ug/ml were prepared freshly in culture medium and added to each well. The treated cells were kept at 37° incubator for 6 h before FACS analysis for apoptosis. For cellular apoptosis assay, Annexin V staining was measured using Annexin-V-FITC Apoptosis Detection Kit (Strong Biotech, Cat. No. AV 250) following the manufacturer's instruction. In brief, the treated cells were harvested and resuspended in Annexin V binding buffer containing Annexin V-FITC at room temperature. After 15 min incubation in the dark, the cells were washed twice with 200 ul of Annexin V binding buffer. Before FACS analysis, 0.25 ug/ml of propidium iodide (PI) was added. All flow cytometric analyses were performed on a BD-LSR flow cytometer (Becton Dickinson) using the Cell Quest software. The Annexin VI positive and/or PI positive cells are considered apoptotic cells.

## O=C1[O][Pt]2([NH][C@@H]3CCCC[C@H]3[NH]2)[O]C1=O [Oxaliplatin]
Colo205 cells; Oxaliplatin 1 ug/ml alone (Antibody 0)
  % apoptosis: 2%
Colo205 cells; Oxaliplatin 10 ug/ml alone (Antibody 0)
  % apoptosis: 6%

## c5F1-v0: chimeric 5F1: variable region of murine 5F1 with constant region of human IgG1; heavy chain v0[H], light chain v0[L]
COLO 205 cells [1]
  binding to Colo 205 (words): bind COLO 205 cells
COLO 205 cells [1]; listed as c5F1v0
  binding to Colo 205 (words): significant binding
COLO 205 cells [1]; Table 10, antibodies at 1 ug/ml
  Median Fluorescence Intensity (MFI): 2760
COLO 205 cells [2]; 2 to 32 ug/ml, compared with m5F1
  apoptosis-inducing activity in COLO 205: not as efficient as m5F1
COLO 205 cells [2]; Table 7, 4 ug/ml
  % of Annexin V and/or PI positive cells: 33%
COLO 205 cells [2]; Table 7, 8 ug/ml
  % of Annexin V and/or PI positive cells: 46%
COLO 205 cells [2]; Table 7, 16 ug/ml
  % of Annexin V and/or PI positive cells: 68%
COLO 205 cells [2]; Table 7, 32 ug/ml
  % of Annexin V and/or PI positive cells: 78%
COLO 205 cells [2]; Table 11 Exp. 1, 8 ug/ml
  % of Annexin V and/or PI positive cells: 34%
COLO 205 cells [2]; Table 11 Exp. 1, 16 ug/ml
  % of Annexin V and/or PI positive cells: 60%
COLO 205 cells [2]; Table 11 Exp. 1, 32 ug/ml
  % of Annexin V and/or PI positive cells: 70%
COLO 205 cells [2]; Table 11 Exp. 2, 8 ug/ml
  % of Annexin V and/or PI positive cells: 54%
COLO 205 cells [2]; Table 11 Exp. 2, 16 ug/ml
  % of Annexin V and/or PI positive cells: 63%
COLO 205 cells [2]; Table 11 Exp. 2, 32 ug/ml
  % of Annexin V and/or PI positive cells: 69%
